# Measurements: doi:10.1101/2025.03.14.643303, “A genome-scale drug discovery pipeline uncovers new therapeutic targets and a unique p97 allosteric binding site in Schistosoma mansoni” (bioRxiv, 2025)
# Entries after “also recorded” stand apart in the source; their conditions may differ. Where two headings read alike, the source gives them in different places.
# What was measured:
# [1] = molecular target: S. mansoni p97 (Smp_018240) (Schistosoma mansoni, UniProt G4M0P7); experiment: biochemical; details: for IC50: read-out: S. mansoni IC50
# Description: E. coli BL21 (DE3) containing the desired plasmid were grown in LB medium containing […] kanamycin while shaking at 37 °C to an OD600 of 0.6–0.8. The temperature was reduced to 18°C and 0.8 mM isopropyl-beta-D-thiogalactopyranoside (IPTG) was added. The bacterial culture was harvested 16hr later by centrifugation. The resulting pellet was suspended in 60 mL lysis buffer/2L bacterial culture [20 mM Tris (pH 7.4), 300 mM NaCl, 5 mM MgCl2, 20 mM imidazole, 1% Triton X-100, 1 mg/mL lysozyme, 10% glycerol, 3 mM β-mercaptoethanol, 0.2 mM PMSF, and protease inhibitor tablet (Roche)]. […] The lysate was centrifuged at 40,000 × rpm for 35 min at 4°C. The resulting supernatant was incubated with Ni-NTA beads equilibrated to lysis buffer for 1 hr at 4°C before being loaded onto a gravity column. The bead bed was washed with wash buffer [20 mM Tris (pH 7.4), 500 mM NaCl, 5 mM MgCl2, 40 mM imidazole, 0.05% Triton X-100, 10% glycerol, 3 mM β-mercaptoethanol, 0.2 mM PMSF, 0.001 mg/mL Aprotinin, and 0.002 mg/mL Leupeptin], then eluted in the same buffer with 250 mM imidazole in wash buffer. Fractions containing p97 were concentrated using Pierce Protein Concentrators (100k MWCO) and loaded onto a gel-filtration column (Superdex 200PG) and eluted using SEC buffer [20 mM Tris (pH 7.4), 180 mM NaCl, 5 mM MgCl2, and 10% glycerol] at 0.5 mL/min flow rate on a BioRad NGC Chromatography System. Fractions corresponding to an apparent molecular weight of 500 – 600 kDa were collected and analyzed by 4–20% SDS/PAGE to evaluate purity. Concentration was determined using a BSA standard. Fractions containing purified protein were aliquoted, snap frozen in liquid nitrogen, and stored at −80 °C until use.
# For manual ATP consumption assays, 1 μM p97 was incubated with 1% DMSO or inhibitor (1% DMSO final) in assay buffer [50 mM Tris (pH 7.5), 20 mM MgCl2, 1 mM EDTA, 0.5 mM tris(2-carboxyethyl)phosphine (TCEP)] for 5 minutes prior to the addition of 20 μM ATP in a 384-well plate for a total reaction volume of 10 μL, and a final concentration of 500nM enzyme and 10 μM ATP. The reaction was allowed to proceed for 50 minutes at room temperature before adding equivalent volume of Kinase-Glo Plus reagent (Promega), and a further incubation of 10 minutes in the dark.
# IC50 values were calculated using GraphPad Prism.
# [2] = molecular target: T1, H. sapiens p97 (P55072) (Homo sapiens, UniProt P55072); experiment: p97 ATPase activity, ATP consumption assay (Kinase-Glo), IC50 / counter screen; assay type: biochemical
# T1 construct: 6xHis (C); made in house; host or cells: E. coli BL21 (DE3)
# [3] = system: S. mansoni vcp/p97 (Smp_018240); experiment: High-throughput screening (HTS) assay, Kinase-Glo, 10 μM single concentration; assay type: biochemical, Schistosoma mansoni; details: for Screen Inhibition: 10 μM compound, normalized to CB-5083, Fig. 4A; for inhibition of S. mansoni p97 function in the screen: high-throughput screen
# Description: Kinase-Glo (Promega, part K1214) was purchased from Promega. Microtiter plates (384 wells) were purchased from Perkin Elmer. All chemicals included in the UTSW library were sourced from commercial sources [ChemDiv (150,000 compounds), ChemBridge (125,500), ComGenex (22,000), Prestwick Chemical, (1,100) and TimTec (500)] or UT Southwestern chemists (https://www.utsouthwestern.edu/research/core-facilities/high-throughput-screening/libraries/). For initial screening, compounds were dispensed by Echo 555 robot for a final concentration of 10 μM (0.2% DMSO). Luminescence was read by EnVision multimode plate reader (Perkin-Elmer). Assay conditions were consistent between manual and high-throughput assays [10 μM ATP, 50 mM Tris (pH 7.5), 20 mM MgCl2, 1 mM EDTA, 0.5 mM tris(2-carboxyethyl)phosphine (TCEP)]. The plates were then incubated for 50 min at room temperature before addition of Kinase-Glo reagent and further incubation in the dark for 10 minutes before reading luminescence. […] Hit compounds were validated using a dose-response curve (19.8 μM, 9.92 μM, 4.96 μM, 3.72 μM, 2.48 μM, 1,24 μM, 0.619 μM, 0.342 μM, 0.256 μM, 0.171 μM, 0.0854 μM, 0.0427 μM, and 0 μM) in triplicate. Compounds were also subjected to a counter screen using a dose-response curve against the full-length human p97 enzyme to determine preliminary selectivity.
# [4] = system: adult S. mansoni worms; experiment: Treatment of adult S. mansoni worms in culture with inhibitors (attachment to tissue culture substrate, morphology; single 10 μM and dose-response EC50); assay type: cell-based, Schistosoma mansoni; details: for time to detachment of adult worms in culture / effect on adult worms: 10 μM; for EC50: Schistosoma mansoni, read-out: S. mansoni EC50; for effect on adult worms: benzoxazole propiolamide series, treated 72 hours, monitored until D5
# Description: Adult S. mansoni (NMRI strain) (6–7 weeks post-infection) worms were harvested from infected female Swiss Webster mice by hepatic portal vein perfusion using 37°C DMEM (Mediatech, Manassas, VA), 8% Horse Serum, and heparin.
# Roughly 5 adult worm pairs were placed in 3mL Basch medium in a 12-well culture vessel, and incubated at 37°C, 5% CO2 for the length of the experiment. Compound was administered at D0, D1, and D2, media and drug refreshed every 24 hr. Worms were then allowed to remain in culture until D5, where a final assessment of worm attachment to tissue culture substate was made by light microscopy. Observations on movement and morphology were also recorded. A negative control (0.1% DMSO) and positive control (PZQ; 10 μM in 0.1% DMSO) were included in each experiment, and each experiment was repeated in triplicate for validation. For compounds that caused complete detachment in replicate experiments, the treatment was expanded to three concentrations (10 μM, 5 μM, and 1 μM) following the same treatment schedule and controls as detailed above. […] Each titration experiment was performed in triplicate according to the treatment regimen described above, using DMSO and PZQ as appropriate controls. Morphologies and motility were assessed by light microscopy, and dose-response curves were calculated using the primary readout of parasite attachment to tissue culture substrate in GraphPad Prism. […]
# […] Values were calculated using Prism.
# [5] = system: HepG2 cells; experiment: HepG2 cytotoxicity assay (Cell Titer Glo 2.0); assay type: cell-based, human; details: Homo sapiens
# Description: HepG2 cells (ATCC) were plated at 2500 cells/well in 50 μL/well, dispersing cells using a 25g needle to break up clumps prior to plating. Plates were incubated for 24hr at 37C, 5% CO2. Following 24hr, 50 μL media containing 0.6% DMSO was added to a set of wells on one plate. The plate and Cell Titer Glo 2.0 reagent were brought to RT. A T=0 read was taken by adding 40 μL reagent/well, rocking the plate at 100 rpm for 2 min, then reading luminescence ~10 min later. […] 50 μL 2x concentrated compound was added to wells containing cells in 50 μL 24 hr after plating. Concentrations were tested in triplicate at following values: 30, 10, 3.3, 1.1, 0.37, 0.12, and 0.04 μM. Plates were incubated for 72 hr at 37C, 5% CO2. Following equilibration to room temperature, 40 μL undiluted reagent was added to each well, the plate rocked at 100 rpm for 2 min and then read for luminescent signal ~10 min later.
# Values are plotted in excel and the 50% point determined by interpolation. Values were revisualized in Prism.
# [6] = Smp97, re-tested screen compounds, 100 μM-1 nM, Fig. 4A
# [7] = Hsp97, re-tested screen compounds, 100 μM-1 nM, Fig. 4A
# [8] = H. sapiens vs S. mansoni p97 IC50, Suppl. Fig. 11D
# Sequence of S. mansoni p97 (Smp_018240) (G4M0P7 entry or part of it): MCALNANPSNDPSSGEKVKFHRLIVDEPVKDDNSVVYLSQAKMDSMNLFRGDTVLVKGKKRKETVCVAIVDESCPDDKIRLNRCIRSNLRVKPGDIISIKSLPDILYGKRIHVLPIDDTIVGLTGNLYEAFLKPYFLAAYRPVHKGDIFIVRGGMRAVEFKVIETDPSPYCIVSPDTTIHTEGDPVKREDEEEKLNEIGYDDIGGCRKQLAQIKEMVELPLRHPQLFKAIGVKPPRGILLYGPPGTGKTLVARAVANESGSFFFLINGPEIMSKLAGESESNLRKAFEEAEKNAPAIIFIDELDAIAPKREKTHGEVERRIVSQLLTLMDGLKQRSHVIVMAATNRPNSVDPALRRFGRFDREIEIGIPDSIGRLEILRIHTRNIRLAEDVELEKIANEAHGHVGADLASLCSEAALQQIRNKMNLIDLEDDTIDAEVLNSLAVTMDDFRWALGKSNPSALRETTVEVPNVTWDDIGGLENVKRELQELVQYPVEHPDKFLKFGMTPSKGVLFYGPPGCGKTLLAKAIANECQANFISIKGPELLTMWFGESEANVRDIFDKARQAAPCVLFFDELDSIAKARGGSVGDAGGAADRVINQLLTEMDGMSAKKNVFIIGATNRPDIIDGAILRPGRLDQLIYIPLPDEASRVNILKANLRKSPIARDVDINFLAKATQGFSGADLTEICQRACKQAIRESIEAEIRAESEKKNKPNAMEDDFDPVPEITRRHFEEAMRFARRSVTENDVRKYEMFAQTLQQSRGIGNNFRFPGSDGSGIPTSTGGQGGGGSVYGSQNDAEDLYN
# T1 sequence (P55072 whole entry): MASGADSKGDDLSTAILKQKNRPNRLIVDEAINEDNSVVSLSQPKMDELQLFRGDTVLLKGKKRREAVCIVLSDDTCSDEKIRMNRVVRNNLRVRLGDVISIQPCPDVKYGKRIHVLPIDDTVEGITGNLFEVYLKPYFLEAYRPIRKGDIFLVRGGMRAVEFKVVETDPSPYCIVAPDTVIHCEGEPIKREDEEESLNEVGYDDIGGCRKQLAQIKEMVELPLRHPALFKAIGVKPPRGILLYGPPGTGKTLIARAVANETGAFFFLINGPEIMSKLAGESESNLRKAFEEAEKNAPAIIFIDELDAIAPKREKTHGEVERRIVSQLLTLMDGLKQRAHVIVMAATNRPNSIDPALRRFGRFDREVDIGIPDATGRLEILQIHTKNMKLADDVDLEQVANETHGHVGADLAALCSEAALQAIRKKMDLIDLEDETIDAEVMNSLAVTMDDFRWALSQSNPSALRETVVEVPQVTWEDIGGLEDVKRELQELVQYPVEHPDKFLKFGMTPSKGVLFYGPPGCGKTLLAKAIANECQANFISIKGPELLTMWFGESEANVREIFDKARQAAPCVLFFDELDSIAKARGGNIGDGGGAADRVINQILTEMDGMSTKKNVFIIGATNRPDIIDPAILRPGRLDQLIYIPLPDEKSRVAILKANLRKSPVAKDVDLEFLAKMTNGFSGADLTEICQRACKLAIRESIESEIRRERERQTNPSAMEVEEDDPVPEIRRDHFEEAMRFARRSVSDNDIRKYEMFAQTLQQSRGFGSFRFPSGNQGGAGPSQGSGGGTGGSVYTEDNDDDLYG
SMILES,"IC50 [1, 6] [µM]","IC50 [2, 7] [µM]",Screen Inhibition [3] [%],inhibition of S. mansoni p97 function in the screen [3],EC50 [4] [µM],effect on adult worms [4],"IC50 ([1]; p97 enzyme, Suppl. Fig. 11D) [µM]","IC50 ([2]; p97 enzyme, Suppl. Fig. 11D) [µM]",also measured
"O=C(C=Cc1ccccc1)Nc1ccc2oc(-c3ccccc3)nc2c1 [Compound 135, N-(2-phenylbenzo[d]oxazol-5-yl)cinnamamide]",> 100,> 100,1.1,inactive,,,,,
"O=C(C#Cc1ccccc1)Nc1ccc2oc(-c3ccncc3)nc2c1 [Compound 242, 3-phenyl-N-(2-(pyridin-4-yl)benzo[d]oxazol-5-yl)propiolamide]",,,47,,9.9,led to death in adult parasites; also recorded: ultimately leading to their death,1.4 ± 0.11,12 ± 0.31,"time to detachment of adult worms in culture [4]: ≤ 48 h; Fold Selectivity [1, 8]: 8.6"
"O=C(C#Cc1ccccc1)Nc1ccc2oc(-c3ccccn3)nc2c1 [Compound 243, 3-phenyl-N-(2-(pyridin-2-yl)benzo[d]oxazol-5-yl)propiolamide]",2.1 ± 0.75,20 ± 0.54,46,,,led to death in adult parasites; also recorded: ultimately leading to their death,2.1 ± 0.75,20 ± 0.54,"time to detachment of adult worms in culture [4]: ≤ 48 h; EC50 ([4]; adult parasites, fraction of worms attached, 72 hours of drug treatment, in culture until D5, 50 μM - 10 nM, Suppl. Fig. 9C): 3.5 µM; Fold Selectivity [1]: 9.5; IC50 ([1]; Sm p97, 100 μM – 1 nM, Suppl. Fig. 9C): 2.1 ± 0.75 µM; IC50 ([1]; recombinant parasite enzyme, 100 μM-1 nM, Fig. 4D): 2.1 ± 0.75 µM; IC50 ([2]; Hs p97, 100 μM – 1 nM, Suppl. Fig. 9C): 20 ± 0.54 µM; IC50 ([2]; recombinant human enzyme, 100 μM-1 nM, Fig. 4D): 20 ± 0.54 µM; GI50 ([5]; HepG2, 72 h): 5.6 µM; IC50 ([5]; HepG2, 72 h): 9.6 µM; GI50 ([5]; HepG2, read-out: HepG2 GI50): 5.6 µM; IC50 ([5]; HepG2, read-out: HepG2 IC50): 9.6 µM"
"O=C(C#Cc1ccccc1)Nc1ccc2oc(-c3cccnc3)nc2c1 [Compound 244, 3-phenyl-N-(2-(pyridin-3-yl)benzo[d]oxazol-5-yl)propiolamide]",,,16,,25,did not have any adverse effects on worm health and survival,> 100,> 100,activity on the enzyme ([1]; schistosome p97): minimal activity on the enzyme
"O=C(C#Cc1ccccc1)Nc1ccc2oc(-c3ccccc3)nc2c1 [Compound 245, 3-phenyl-N-(2-phenylbenzo[d]oxazol-5-yl)propiolamide]",,,36,,12,"did cause detachment, it did not lead to parasite death",3.8 ± 0.19,> 100,"Fold Selectivity [1, 8]: > 30"
"O=C(/C=C\c1ccccc1)Nc1ccc2oc(-c3ccccc3)nc2c1 [Compound 324, (Z)-3-phenyl-N-(2-phenylbenzo[d]oxazol-5-yl)acrylamide]",> 100,> 100,1.1,inactive,,,,,
"O=C(CCc1ccccc1)Nc1ccc2oc(-c3ccccn3)nc2c1 [Compound 326, 3-phenyl-N-(2-(pyridin-2-yl)benzo[d]oxazol-5-yl)propanamide]",> 100,> 100,2.2,inactive,,,,,
